Ends that are not written are not given here.
Columns and labels:
C57/BL6 mice = experiment: In vivo Matrigel plug assay; details: subcutaneous, 7 days
Method: In the present invention, the angiogenesis-inhibitory effect of the YH18 synthetic peptide, which had been proven in vitro assay according to Example 8-1, was assayed in vivo. An in vivo Matrigel plug assay was performed according to the method described by Maeshima, Y. et al., J. Biol. Chem., 275:23745-23750, 2000. 5-6 week old male C57/BL6 mice purchased from Hyochang scientific company, Korea, were used.
First, Matrigel (BD Biosciences, MA) was mixed with 20 units/ml heparin, 150 ng/ml bFGF (basic fibroblast growth factor, R&D system, International, Inc), and a YH18 synthetic peptide represented by SEQ ID NO: 26. As a control to the YH18 synthetic peptide, an YH18-con. peptide was used, and a control to peptide treatment was treated with 5% DMSO (solvent). The Matrigel mixture was injected subcutaneously to the C57/BL6 mice. After 7 days, the mice were sacrificed, and the Matrigel plugs were removed and fixed in 4% paraformaldehyde. The Matrigel plugs were buried in paraffin, sectioned and stained with H&E. Their sections were examined by light microscope, the number of blood vessels from 4-6 HPF (high power fields; ×200) was counted and averaged. Each group consisted of 3 or 4 Matrigel plugs.

HUVECs [1] = experiment: HUVECs migration assay in transwell plate coated with βig-h3; assay type: cell-based, human; details: 500 μM or 1 mM peptide of SEQ ID NO: 26
Method: Firstly, to examine whether βig-h3 is involved in the migration of endothelial cells, the present inventors performed cell migration assay. The cell migration assay was performed in a transwell plate (8 μm pore size, Costar, Cambridge, Mass.). The undersurface of the membrane was coated with the recombinant βig-h3 His-β-b protein (10 μg/ml) prepared in Example 1 at 4° C., and then, blocked for 1 hour at room temperature with PBS buffer containing 2% BSA. Meanwhile, HUVECs were added with an anti-αvβ3 antibody (LM609) or an anti-αvβ5 antibody (P1F6) and preincubated at 37° C. for 30 minutes. A control was added with mouse IgG. Then, the HUVECs preincubated with the antibody were suspended in medium at a density of 3×10^5 cells/ml, and 0.1 ml of the cell suspension was added to the upper compartment of the filter. The cells were allowed to migrate at 37° C. for 6-8 hours.
Migration was terminated by removing the cells from the upper compartment of the filter with a cotton swab. The filters were fixed with 8% glutaraldehyde and stained with crystal violet. The extent of cell migration was determined by light microscope, and within each well, cell counting was done in nine randomly selected fields HPF (Microscopic high power fields, ×200).
Then, the present inventors examined whether the migration of endothelial cells is inhibited by the YH18 synthetic peptide. […]

HUVECs [2] = test system: HUVECs
Method: First, 100 μl of Matrigel (Chemicon, International Inc, Temecula, Calif.) was added to each well of a 96-well plate and allowed to polymerize. HUVECs were suspended in medium at a density of 3×10^5 cells/ml, and 0.1 ml of the cell suspension was added to each well of the well plate coated with Matrigel. At this time, 500 μM or 1 mM of the YH18 synthetic peptide represented by SEQ ID NO: 26 was added together. A control to peptide treatment was treated with 5% DMSO (solvent), and a control to the YH18 synthetic peptide was treated with the YH18-con. peptide represented by SEQ ID NO: 27. Thereafter, the cells were incubated at 37° C. for 16-18 hours. The cells were photographed, and endothelial tubes were counted and averaged.

HUVECs [3] = experiment: HUVECs adhesion to plates coated with βig-h3, its fas-1 domains or mutants; assay type: cell-based, human; details: 10 μg/ml protein coated on plate; attached cells by absorbance at 405 nm; control BSA
Method: Cell adhesion assay was performed according to the method described by Kim, J.-E. et al., J. Biol. Chem., 277:4615946165, 2002. For this purpose, 10 μg/ml of each of the recombinant proteins (βig-h3 His-β-b, βig-h3 D-I, βig-h3 D-II, βig-h3 D-III and βig-h3 D-IV) prepared in Example 1 was placed into a flat-bottomed 96-well ELISA (enzyme-linked immunosorbent assay) plate (Costar, Corning Inc., NY) and then incubated overnight at 4° C., to coat the surface of the plate. As a control, 2% BSA was coated on the plate. Then, the plate was treated with PBS (phosphate-buffered saline) containing 2% BSA, and blocked at room temperature for one hour.
Meanwhile, HUVECs (human umbilical vein endothelial cells; Clonetics, San Diego, Calif.) were incubated in EGM medium (Clonetics, San Diego, Calif.) containing 2% FBS (Fetal Bovine Serum) under a condition of 37° C. and 5% CO2. The incubated cells were suspended in medium at a density of 3×10^5 cells/ml, and 0.1 ml of the cell suspension was added to each well of the plate. Next, the cells were incubated at 37° C. for 30 minutes and washed one time with PBS buffer to remove cells which had not been attached to the plate. Attached cells were added with 50 mM citrate buffer (pH 5.0) containing 3.75 mM p-nitrophenyl-N-acetyl β-D-glycosaminide and 0.25% Triton X-100, and incubated at 37° C. for one hour. Thereafter, 50 mM glycine buffer (pH 10.4) containing 5 mM EDTA was added to block the activity of the enzyme. The absorbance was measured at a 405-nm in a Bio-Rad model 550 microplate reader. Here, the higher the number of cells adhered to the plate, the higher the absorbance.
Each of the deletion mutants was generated by PCR using a cDNA template encoding the fourth fas-1 domain (SEQ ID NO: 5) (Kim, J.-E. et al., J. Biol. Chem., 275:30907-30915, 2000). Each of the PCR-amplified DNA fragments was cloned into the EcoRV/Xhol sites of the pET-29b(+) vector (Novagen; Madison, Wis.). The mutations were confirmed by sequence analysis, and the deletion mutants were expressed and purified according to a prior method (Kim, J.-E., et al., J. Cell. Biochem., 77:169-178, 2000). Thereafter, the cell adhesion activity of each of the deletion mutants was tested in the same manner as in Example 2.
Previously, the present inventors reported that an YH motif, which contains tyrosine-histidine residues highly conserved in the fragment corresponding to amino acids 548-614 of SEQ ID NO: 1, and several leucine and isoleucine residues adjacent to the tyrosine-histidine residues, binds to the αvβ5 integrin (Kim, J.-E., et al., J. Biol. Chem., 277:46159-46165, 2002). Thus, the present inventors suspected that the YH motif may also interact with the αvβ3 integrin to mediate endothelial cell adhesion. For this reason, in the present invention, the tyrosine-histidine residues conserved in the fas-1 domains, and/or the leucine and isolucine residues adjacent to the tyrosine-histidine residues, were substituted in various combinations by alanine or serine (Kim, J.-E., et al., J. Biol. Chem. 277:4615946165, 2002)(see FIG. 4b). The amino acid sequences of the prepared YH motif mutants are shown in SEQ ID NO: 17 to SEQ ID NO: 22. The mutations were confirmed by sequence analysis. Then, the substitution mutants were expressed and purified according to a known method (Kim, J.-E., et al., J. Cell. Biochem., 77:169-178, 2000). The substitution mutants were tested for their cell adhesion activity according to the same manner as in Example 2.

Row | Molecule | endothelial cell (HUVECs) adhesion activity (HUVECs [3]) | also measured
1 | KELANILKYHIGDEILVS [YH18 synthetic peptide] |  | number of blood vessels in Matrigel plug (C57/BL6 mice; 500 μM peptide in Matrigel with bFGF and heparin): significant reduction in the number of blood vessels; inhibition of angiogenesis in Matrigel plug (C57/BL6 mice; 1 mM peptide in Matrigel with bFGF and heparin): complete inhibition of angiogenesis; inhibition of HUVECs migration toward βig-h3 by YH18 synthetic peptide (HUVECs [1]): inhibited the migration of endothelial cells toward βig-h3; IC50 (HUVECs [2]): 500 µM; inhibition of HUVECs tube formation (HUVECs [2]; 500 μM or 1 mM peptide, dose-dependent): selectively inhibited
2 | D-IV-LYHR: D-IV mutant, all isoleucine and leucine residues on both sides of tyrosine-histidine substituted with serine (GDAKESANSSKYHSGDESSVSGGIGALVR; D-IV-LYHR) | reduced to half that of the fas-1 domain | 
3 | D-IV-LAA: D-IV mutant, tyrosine-histidine to alanine-alanine and isoleucine/leucine on one side to serine (GDAKESANSSKAAIGDEILVSGGIGALVR; D-IV-LAA) | somewhat lower than those of D-IV-LAA and D-IV-AAR | 
4 | D-IV-L: D-IV mutant, leucine and isoleucine residues adjacent to one side of tyrosine-histidine substituted with serine (GDAKESANSSKYHIGDEILVSGGIGALVR; D-IV-L) | equal to those of the fas-1 domain (D-IV) and its fragment (H1H2(6)) | 
5 | D-IV-AA: D-IV mutant, tyrosine-histidine residues substituted with alanine-alanine (GDAKELANILKAAIGDEILVSGGIGALVR) | equal to those of the fas-1 domain (D-IV) and its fragment (H1H2(6)) | 
6 | D-IV-R: D-IV mutant, leucine and isoleucine residues adjacent to one side of tyrosine-histidine substituted with serine (GDAKELANILKYHSGDESSVSGGIGALVR; D-IV-R) | equal to those of the fas-1 domain (D-IV) and its fragment (H1H2(6)) | 
7 | D-IV-AAR: D-IV mutant, tyrosine-histidine to alanine-alanine and isoleucine/leucine on one side to serine (GDAKELANILKAASGDESSVSGGIGALVR; D-IV-AAR) | somewhat lower than those of D-IV-LAA and D-IV-AAR | 
8 | ΔH1H2(6): smallest deletion mutant fragment, amino acids 548-614 of SEQ ID NO: 1, SEQ ID NO: 10 (protein, listed as Homo sapiens) RALPPRERSRLLGDAKELANILKYHIGDEILVSGGIGALVRLKSLQGDKLEVSLKNNVVSVNKEPVA | still retains endothelial cell adhesion activity | 
